Assay results published in patent US5962314A, “Calcium receptor-active molecules” (priority 1997, dated 1999).
Entries after “also recorded” stand apart in the source; their conditions may differ.

Tests used:
[1] = tested on: parathyroid cell calcium receptor; assay: Cl- current in Xenopus oocytes injected with bovine parathyroid cell mRNA; format: cell-based; conditions: 30 μM; oocytes injected with parathyroid cell mRNA
Method: Following incubation, an oocyte was placed into a 100-μl plastic chamber and superfused with MBS at a flow rate of 0.5 ml/min using a peristaltic pump. Test molecules or inorganic polycations were added by rapidly moving the tubing into different buffers. Recording and current-passing electrodes were constructed from thin-wall capillary tubing pulled to a resistance of 1-3 Mohms and filled with 3 M KCl. […] Currents were recorded directly onto a strip chart recorder.

[2] = tested on: human parathyroid calcium receptor; assay: intracellular calcium in HEK293 cells stably transfected with human calcium receptor; format: cell-based; conditions: Ca2+ 10 mM; Mg2+ 20 mM; HuPCaR 5.2
Method: Different cells were tested for response to pure stereoisomers and racemic mixtures. […] Intracellular Ca^2+ was monitored using a fluorimeter. Each point on the graph represents the peak response (highest concentration of intracellular calcium achieved) to the addition of the indicated concentration of the indicated compound.
Cells obtained from the pool of hygromycin selected HEK293 cells transfected with Cep4B containing the HuPCaR 5.2 insert were plated on collagen coated Aklar squares which had been placed into individual wells of 12-well tissue culture plates. Two to six days later, medium was removed and the cells washed with balanced salt solution and 1 ml of buffer containing 1 μM fura2-AM, 1 mM CaCl2 and 0.1% BSA and 1 mM CaCl2. Measurements of fluorescence in response to calcium receptor agonists were performed at 37° C. in a spectrofluorimeter using excitation and emission wavelengths of 340 and 510 nm, respectively. For signal calibration, Fmax was determined after addition of ionomycin (40 μM) and the apparent Fmin was determined by addition of 0.3 M EGTA, 2.5 M Tris-HCl; pH 10.
Additional clonal isolates of HEK 293 cells transfected with pHuPCaR4.0 sequence were obtained. These were tested for responsiveness to calcimimetics as described above except that the cells were tested while in suspension. Similar positive results were obtained (FIG. 28b).

serum ionized calcium [3] = assay: serum ionized Ca2+ in rats; format: in vivo, rat; conditions: NPS R-467 single oral dose, 3 hours
Method: Compounds shown to activate the bovine parathyroid cell calcium receptor in vitro were tested for hypocalcemic activity in vivo. Male Sprague-Dawley rats (200 g) were maintained on a low calcium diet for one week prior to receiving test substance or vehicle as control. Blood was collected from the tail vein three hours after the intra-peritoneal administration of NPS 467. […] Serum total calcium, albumin and phosphate were measured by techniques well known in the art.
Rats (male, Sprague-Dawley, 250-300 g) were fed standard rat chow and fasted overnight prior to the experiment. NPS R-467 was suspended in corn oil and administered as a single oral dose through a gavage needle. Three hours later a sample of blood was taken from the tail vein and assessed for ionized Ca^2+ levels.

[4] = biological target: T1, human parathyroid cell calcium receptor (Homo sapiens, UniProt P41180); assay: Cl- current in Xenopus oocytes expressing human parathyroid cell calcium receptor; format: cell-based
T1 construct: T7 cRNA injected into Xenopus oocytes
T1 sequence (P41180 with tags, fused parts or gaps INS536PLTFVLSVLQ/Q926R/E1011Q): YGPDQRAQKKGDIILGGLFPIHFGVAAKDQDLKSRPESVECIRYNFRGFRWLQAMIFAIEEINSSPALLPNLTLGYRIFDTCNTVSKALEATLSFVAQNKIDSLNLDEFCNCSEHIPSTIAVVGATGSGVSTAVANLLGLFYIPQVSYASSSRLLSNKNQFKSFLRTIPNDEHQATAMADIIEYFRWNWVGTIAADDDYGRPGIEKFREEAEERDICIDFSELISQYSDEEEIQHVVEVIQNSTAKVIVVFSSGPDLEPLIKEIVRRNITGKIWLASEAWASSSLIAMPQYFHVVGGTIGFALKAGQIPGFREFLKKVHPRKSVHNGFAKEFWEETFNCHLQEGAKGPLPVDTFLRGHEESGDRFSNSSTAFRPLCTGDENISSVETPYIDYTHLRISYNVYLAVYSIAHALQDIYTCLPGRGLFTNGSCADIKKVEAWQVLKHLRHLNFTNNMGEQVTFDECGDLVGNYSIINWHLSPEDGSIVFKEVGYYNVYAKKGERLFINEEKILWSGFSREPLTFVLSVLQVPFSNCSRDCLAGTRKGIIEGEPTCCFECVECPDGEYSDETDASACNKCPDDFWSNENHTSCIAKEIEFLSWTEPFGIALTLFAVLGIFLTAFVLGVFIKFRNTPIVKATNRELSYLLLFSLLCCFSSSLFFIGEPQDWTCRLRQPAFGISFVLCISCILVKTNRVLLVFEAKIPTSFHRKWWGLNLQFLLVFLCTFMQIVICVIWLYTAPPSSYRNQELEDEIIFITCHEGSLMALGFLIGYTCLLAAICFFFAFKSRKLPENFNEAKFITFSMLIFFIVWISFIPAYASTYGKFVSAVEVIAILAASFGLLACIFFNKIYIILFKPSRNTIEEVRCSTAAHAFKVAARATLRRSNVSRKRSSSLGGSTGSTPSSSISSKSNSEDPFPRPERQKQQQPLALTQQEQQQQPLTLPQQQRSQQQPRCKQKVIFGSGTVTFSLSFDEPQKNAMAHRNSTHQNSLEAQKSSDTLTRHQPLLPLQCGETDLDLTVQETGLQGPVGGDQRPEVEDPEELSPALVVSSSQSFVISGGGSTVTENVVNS
Method: Representative cDNA inserts for both size classes were subcloned into the plasmid vector pBluescript SK. Linearization followed by in vitro transcription using T7 RNA polymerase produced cRNA transcripts. The cRNA transcripts were injected into Xenopus oocytes (150 ng/μl RNA; 50 nl/oocyte) for functional analysis. Following incubation periods of 2-4 days, the oocytes were assayed for the presence of functional calcium receptors. Both clone types gave rise to functional calcium receptors as assessed by the stimulation of calcium-activated chloride currents upon addition of appropriate calcium receptor agonists. […] Thus, both clones encode a functional, human parathyroid cell calcium receptor.
Xenopus oocytes were injected with pHuPCaR 5.2, the 5.2 Kb cDNA encoding a parathyroid cell calcium receptor derived from a human parathyroid cell adenoma. (See Example 27.) After two to three days, Cl^- currents were measured in the oocytes using a two-electrode voltage clamp.

serum ionized calcium [5] = assay: serum ionized Ca2+ in parathyroidectomized rats; format: in vivo, rat; conditions: NPS R-467 10 mg/kg i.p., 6 hours; NPS R-568 oral
Excerpt: To determine the primary target tissue upon which NPS R-467 acts to cause a hypocalcemic response, the parathyroid glands in rats were surgically removed. Animals receiving a total parathyroidectomy become hypocalcemic and are largely dependent upon dietary calcium to maintain serum Ca^2+ homeostasis.

C-cell calcium receptor = biological target: T2, C-cell calcium receptor (Rattus norvegicus, UniProt P48442); format: cell-based; conditions: Table 6; rMTC 6-23 cells, fura-2
T2 construct: Neoplastic C-cells derived from a rat medullary thyroid carcinoma (rMTC 6-23); host or cells: rMTC 6-23 cells
T2 sequence (P48442 20-1079): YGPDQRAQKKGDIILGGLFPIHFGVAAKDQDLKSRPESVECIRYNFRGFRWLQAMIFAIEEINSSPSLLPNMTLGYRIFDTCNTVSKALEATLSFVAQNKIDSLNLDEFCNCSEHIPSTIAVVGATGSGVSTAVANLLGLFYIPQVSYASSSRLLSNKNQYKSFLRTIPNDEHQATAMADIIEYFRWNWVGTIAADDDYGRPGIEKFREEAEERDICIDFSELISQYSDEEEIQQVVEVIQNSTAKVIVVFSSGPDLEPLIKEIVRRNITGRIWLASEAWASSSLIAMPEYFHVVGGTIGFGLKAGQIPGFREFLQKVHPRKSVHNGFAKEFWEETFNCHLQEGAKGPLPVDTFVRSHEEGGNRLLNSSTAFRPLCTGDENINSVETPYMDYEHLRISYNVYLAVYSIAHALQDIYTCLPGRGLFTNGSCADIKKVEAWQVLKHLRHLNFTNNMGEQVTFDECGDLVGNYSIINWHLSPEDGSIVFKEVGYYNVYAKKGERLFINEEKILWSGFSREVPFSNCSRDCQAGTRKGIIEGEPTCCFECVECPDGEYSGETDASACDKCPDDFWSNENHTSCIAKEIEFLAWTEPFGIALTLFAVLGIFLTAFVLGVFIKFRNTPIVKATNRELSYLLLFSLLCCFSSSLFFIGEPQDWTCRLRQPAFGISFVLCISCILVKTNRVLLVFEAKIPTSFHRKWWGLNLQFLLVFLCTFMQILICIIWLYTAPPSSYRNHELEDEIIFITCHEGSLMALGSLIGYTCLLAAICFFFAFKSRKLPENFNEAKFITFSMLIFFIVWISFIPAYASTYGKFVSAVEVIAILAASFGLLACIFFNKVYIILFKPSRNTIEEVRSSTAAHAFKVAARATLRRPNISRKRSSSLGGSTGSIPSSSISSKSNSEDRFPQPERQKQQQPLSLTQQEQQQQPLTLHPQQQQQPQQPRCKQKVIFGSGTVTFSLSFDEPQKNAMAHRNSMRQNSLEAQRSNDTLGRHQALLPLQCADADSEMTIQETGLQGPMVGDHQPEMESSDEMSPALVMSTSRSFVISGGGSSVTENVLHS
Excerpt: To assess the effects of molecular polycations on C-cells, a neoplastic cell line, derived from a rat medullary thyroid carcinoma (rMTC 6-23 cells) was used.

## COc1cccc([C@@H](C)NCCCc2ccccc2)c1 [NPS R-467, (R)-(+)-N-(3-phenylpropyl)-α-methyl-3-methoxybenzylamine]
[1]
  effect on Cl- current: rapid increase in Cl^-
[2]
  increase in intracellular calcium: Robust increases in intracellular calcium
Serum ionized calcium [3]
  effect on serum ionized Ca2+, oral: lowers serum ionized calcium; also recorded: dose-dependent reduction in serum levels of ionized Ca^2+
[4]
  activation of oocyte-expressed receptor: activated the oocyte-expressed receptor at about the same concentrations
Serum ionized calcium [5]
  effect on serum ionized Ca2+ in parathyroidectomized rats: did not cause any change in serum ionized Ca^2+
C-cell calcium receptor
  EC50: 2.2 µM
